From patent publication US4413009A, “N-((Alkylamino)carbonyl)-N-(((alkylamino)carbonyl)oxy)acylamides with antineoplastic activity” (priority 1982, dated 1983)

Experiments:
P388 leukemia = test: Antineoplastic activity against P388 lymphocytic leukemia in mice (IP), survival time and toxicity day survivors; type: in vivo, mice (CDF1); conditions: for Toxicity Day Survivors: survivors/started
Description: (A) Test mice (CDF1 mice) were injected intraperitoneally (IP) with ascitic fluid containing 10^6 cells of P388 lymphocytic leukemia. The test compound was administered in a sialine -Tween 80 carrier at the appropriate dosage, IP daily for 9 days; the initial treatment performed the first day after tumor inoculation. Control mice received no compound.

HeLa cells = test: HeLa cell colony cytotoxicity / growth inhibition test; type: cell-based, human; conditions: 8 days, 0-50 μg/ml
Description: HeLa cells were seeded in 24-well tissue culture plates at a concentration of 30 cells per well in 1 ml of growth medium (Eagle's minimum essential medium with 5 percent HIFCS). The plates were incubated at 36° C. for 24 hours after which the growth medium was removed. The cells were resuspended in 1 ml of fresh growth medium described above together with a measured quantity of (0-50 μg/ml) of one of the compounds of this invention. The 0 μg/ml concentration served as a control. The tissue culture plates were then incubated at 36° C. for 8 days at which time the medium was removed and the cells were fixed and stained with 0.1% crystal violet in 20% ethanol. The HeLa cell colonies were counted macroscopically, and comparisons of colony size in treated and control wells were made. Test compounds were considered cytotoxic at concentrations which reduced the number of HeLa cell colonies compared to control by 50% or more. Test compounds of the invention were considered to cause HeLa cell growth inhibition at concentrations which reduced the size of colonies by a measurable amount when compared to control.

[1] = tested on: MX-1 human breast xenograft; test: Activity against MX-1 human breast xenograft in subrenal capsule of athymic mice, tumor size change and toxicity day survivors; type: in vivo, human (xenograft in athymic Swiss Nu/Nu mice); conditions: survivors/started
Description: (B) A tumor fragment (MX-1 human breast xenograft) having a diameter of between 9 and 12 ocular micrometer units (OMU) (approximately 1×1×1 millimeter) was implanted and measured in situ in the subrenal capsule of athymic Swiss (Nu/Nu Swiss) mice. The appropriate dosage of the test compound in a saline carrier was administered by subcutaneous injection once daily for 10 days; the initial treatment was performed on the first day after tumor implant. No test compound was administered to the control mice. Test mice were sacrificed on the eleventh day and tumor size noted. The change in tumor diameter (from day 0 (implant day) to day 11 (sacrifice day)) as compared with the tumor size of the control was used as an evaluation of tumor growth or regression.

[2] = Experiment No. 1, 50.00 mg/kg per injection IP daily for 9 days
[3] = Experiment No. 2, 12.50 mg/kg per injection IP daily for 9 days
[4] = Experiment No. 2, 25.00 mg/kg per injection IP daily for 9 days
[5] = Experiment No. 2, 50.00 mg/kg per injection IP daily for 9 days

Which “median survival time of the test animals (in words)” value (P388 leukemia; 50 mg/kg per injection, one experiment) does the source give for `CNC(=O)ON(C(C)=O)C(=O)NC` [Example 1, N-((Methylamino)carbonyl)-N-(((methylamino)carbonyl)oxy)acetamide] here?
The value was “increased the median survival time”.

And the “median survival time of the test animals (in words)” value (P388 leukemia; 12.50, 25 and 50 mg/kg per injection, another experiment)?
Its value is “increased the median survival time”.

What about the “T/C % (median survival time, treated vs control)” value (P388 leukemia; [2]) of the same molecule?
Its value is 142%.

What about the “Toxicity Day Survivors” value (P388 leukemia; [2]) of the same molecule?
The value was 06/06.

And the “Toxicity Day Survivors” value (P388 leukemia; Experiment No. 1, 100.00 mg/kg per injection IP daily for 9 days)?
Its value is 01/06.

What about the “Toxicity Day Survivors” value (P388 leukemia; Experiment No. 1, 200.00 mg/kg per injection IP daily for 9 days) of the same molecule?
The value was 00/06.

And the “T/C % (median survival time, treated vs control)” value (P388 leukemia; [3])?
Its value is 131%.

And the “Toxicity Day Survivors” value (P388 leukemia; [3])?
The value was 06/06.

And the “T/C % (median survival time, treated vs control)” value (P388 leukemia; [4])?
Its value is 126%.

And the “Toxicity Day Survivors” value (P388 leukemia; [4])?
Its value is 06/06.

What about the “T/C % (median survival time, treated vs control)” value (P388 leukemia; [5]) of the same molecule?
The value was 141%.

And the “Toxicity Day Survivors” value (P388 leukemia; [5])?
Its value is 06/06.

What about the “Toxicity Day Survivors” value (P388 leukemia; Experiment No. 2, 100.00 mg/kg per injection IP daily for 9 days) of the same molecule?
The value was 03/06.

And the “median survival time of the test mice afflicted with P388 leukemia (in words)” value (P388 leukemia; Table 3 data)?
The value was “increased the median survival time”.

What about the “Cell Growth Inhibition: concentration at which the size of the HeLa colonies were reduced by a measurable amount (as compared to control)” value (HeLa cells) of the same molecule?
The value was 12.5 µg/mL.

What about the “Toxicity Day Survivors” value ([1]; Experiment 1, 12.5 mg/kg s.c. daily for 10 days) of the same molecule?
Its value is 03/03.

What about the “Toxicity Day Survivors” value ([1]; Experiment 1, 25 mg/kg s.c. daily for 10 days) of the same molecule?
The value was 03/03.

What about the “Toxicity Day Survivors” value ([1]; Experiment 1, 50 mg/kg s.c. daily for 10 days) of the same molecule?
Its value is 03/03.

What about the “Toxicity Day Survivors” value ([1]; Experiment 1, 100 mg/kg s.c. daily for 10 days) of the same molecule?
The value was 01/03.

And the “Toxicity Day Survivors” value ([1]; Experiment 2, 25 mg/kg s.c. daily for 10 days)?
Its value is 06/06.

And the “Toxicity Day Survivors” value ([1]; Experiment 2, 50 mg/kg s.c. daily for 10 days)?
Its value is 06/06.

And the “Toxicity Day Survivors” value ([1]; Experiment 2, 100 mg/kg s.c. daily for 10 days)?
Its value is 06/06.

And the “Toxicity Day Survivors” value ([1]; Experiment 2, 200 mg/kg s.c. daily for 10 days)?
The value was 05/06.

What about the “Toxicity Day Survivors” value ([1]; Experiment 3, 25 mg/kg s.c. daily for 10 days) of the same molecule?
The value was 06/06.

What about the “Toxicity Day Survivors” value ([1]; Experiment 3, 50 mg/kg s.c. daily for 10 days) of the same molecule?
The value was 06/06.

And the “Toxicity Day Survivors” value ([1]; Experiment 3, 100 mg/kg s.c. daily for 10 days)?
The value was 06/06.

What about the “Toxicity Day Survivors” value ([1]; Experiment 3, 200 mg/kg s.c. daily for 10 days) of the same molecule?
Its value is 00/06.

And the “Toxicity Day Survivors” value ([1]; Experiment 4, 25 mg/kg s.c. daily for 10 days)?
Its value is 03/03.

And the “Toxicity Day Survivors” value ([1]; Experiment 4, 50 mg/kg s.c. daily for 10 days)?
The value was 02/02.

And the “Toxicity Day Survivors” value ([1]; Experiment 4, 100 mg/kg s.c. daily for 10 days)?
Its value is 03/03.

And the “Toxicity Day Survivors” value ([1]; Experiment 4, 200 mg/kg s.c. daily for 10 days)?
Its value is 01/03.
